Activity calls are given as the source filed them.
Experiments:
HEK293 [1] = experiment: SAR Analysis of small molecule inhibitors of B-cell specific antigen receptor-induced NF-kB activation in a HEK-293T cell line using a luminescence assay - Set 2. [Related pubchem assays (depositor defined):AID435022, AID435025, AID489021]; format: functional, cell-based; settings: Homo sapiens
HEK293 [2] = experiment: cytotoxicity in HEK293T NF-kB-Luc cells, SAR follow-up, cytotoxicity control for NF-kB activator project, cell-based, resazurin fluorescence (AID 493251); format: functional; settings: Homo sapiens
Jurkat = experiment: SAR Analysis of small molecule inhibitors of […] specific antigen receptor-induced NF-kB activation in a Jurkat cell line using a luminescence assay - Set 3. [Related pubchem assays (depositor defined):AID435022, AID435025, AID465]; format: functional, cell-based; settings: Homo sapiens
Large T antigen = Large T antigen (Simian virus 40, UniProt P03070); format: functional, Betapolyomavirus macacae;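 also: Confirmatory-stage PubChem screen for compounds that inhibit SV40 T antigen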
Large T antigen, sequence (P03070 whole entry): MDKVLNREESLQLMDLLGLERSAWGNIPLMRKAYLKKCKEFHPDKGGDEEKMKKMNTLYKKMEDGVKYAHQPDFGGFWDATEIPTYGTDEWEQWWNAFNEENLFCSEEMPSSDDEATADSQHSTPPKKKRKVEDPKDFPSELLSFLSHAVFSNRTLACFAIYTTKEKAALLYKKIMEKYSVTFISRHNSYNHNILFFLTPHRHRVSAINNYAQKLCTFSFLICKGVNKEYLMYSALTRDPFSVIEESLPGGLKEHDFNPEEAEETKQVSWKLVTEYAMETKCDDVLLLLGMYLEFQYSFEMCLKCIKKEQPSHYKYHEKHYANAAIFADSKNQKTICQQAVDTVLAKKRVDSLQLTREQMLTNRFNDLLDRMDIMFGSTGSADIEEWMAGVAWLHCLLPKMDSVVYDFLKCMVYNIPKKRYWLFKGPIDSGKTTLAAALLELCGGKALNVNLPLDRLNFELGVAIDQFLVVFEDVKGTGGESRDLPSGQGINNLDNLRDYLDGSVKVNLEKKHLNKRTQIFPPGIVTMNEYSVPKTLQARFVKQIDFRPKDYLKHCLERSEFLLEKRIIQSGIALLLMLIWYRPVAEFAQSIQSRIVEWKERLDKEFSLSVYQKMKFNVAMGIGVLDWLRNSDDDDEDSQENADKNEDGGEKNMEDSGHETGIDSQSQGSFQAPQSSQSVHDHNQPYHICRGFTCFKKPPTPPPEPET

[3] = biological target: T1, Intestinal-type alkaline phosphatase (Homo sapiens, UniProt P09923); experiment: Dose Response confirmation of uHTS hits from a small molecule inhibitors of human intestinal alkaline phosphatase via a luminescent assay. [Related pubchem assays (depositor defined):AID2544, AID2574]; format: functional
T1 sequence (P09923 whole entry): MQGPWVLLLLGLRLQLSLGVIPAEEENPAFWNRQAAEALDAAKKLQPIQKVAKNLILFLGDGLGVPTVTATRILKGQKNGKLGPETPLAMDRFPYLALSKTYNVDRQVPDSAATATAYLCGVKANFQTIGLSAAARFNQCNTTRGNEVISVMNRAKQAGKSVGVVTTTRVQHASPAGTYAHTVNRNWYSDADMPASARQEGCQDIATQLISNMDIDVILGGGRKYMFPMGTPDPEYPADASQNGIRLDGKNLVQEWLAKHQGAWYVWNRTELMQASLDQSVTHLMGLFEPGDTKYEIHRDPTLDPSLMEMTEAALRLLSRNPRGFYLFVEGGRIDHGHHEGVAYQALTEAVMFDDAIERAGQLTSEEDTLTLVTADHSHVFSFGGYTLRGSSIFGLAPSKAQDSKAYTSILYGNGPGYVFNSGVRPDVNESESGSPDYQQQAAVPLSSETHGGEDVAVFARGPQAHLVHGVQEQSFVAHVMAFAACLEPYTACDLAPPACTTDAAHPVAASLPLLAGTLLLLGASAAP

[4] = biological target: T2, Alkaline phosphatase, tissue-nonspecific isozyme (Homo sapiens, UniProt P05186); experiment: inhibition of tissue-nonspecific alkaline phosphatase – biochemical, dose response (AID 488882); format: functional
T2 sequence (P05186 whole entry): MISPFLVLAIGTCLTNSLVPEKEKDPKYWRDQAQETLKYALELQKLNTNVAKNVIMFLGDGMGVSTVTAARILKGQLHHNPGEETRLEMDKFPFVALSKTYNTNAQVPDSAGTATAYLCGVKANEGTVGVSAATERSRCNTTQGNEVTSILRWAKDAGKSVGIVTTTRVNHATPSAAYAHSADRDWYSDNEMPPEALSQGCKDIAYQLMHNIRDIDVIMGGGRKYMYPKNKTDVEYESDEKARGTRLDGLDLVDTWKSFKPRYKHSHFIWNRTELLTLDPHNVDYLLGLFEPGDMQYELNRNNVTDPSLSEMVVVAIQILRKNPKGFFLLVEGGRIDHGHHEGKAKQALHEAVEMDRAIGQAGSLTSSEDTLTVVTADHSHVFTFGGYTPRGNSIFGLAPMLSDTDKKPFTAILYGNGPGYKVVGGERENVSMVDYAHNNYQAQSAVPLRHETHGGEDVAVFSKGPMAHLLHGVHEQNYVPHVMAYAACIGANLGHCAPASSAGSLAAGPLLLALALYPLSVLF

[5] = HEp-2 cell cytotoxicity, dose response, cytotoxicity control for RSV inhibitor project, HTS (AID 2410); format: functional; settings: human respiratory syncytial virus
Caspase-6 = biological target: T3, Caspase-6 (Homo sapiens, UniProt P55212); experiment: human caspase-6 inhibitors, dose response, biochemical, VEID-R110 fluorescence, cherry-pick (AID 720632)
T3 sequence (P55212 whole entry): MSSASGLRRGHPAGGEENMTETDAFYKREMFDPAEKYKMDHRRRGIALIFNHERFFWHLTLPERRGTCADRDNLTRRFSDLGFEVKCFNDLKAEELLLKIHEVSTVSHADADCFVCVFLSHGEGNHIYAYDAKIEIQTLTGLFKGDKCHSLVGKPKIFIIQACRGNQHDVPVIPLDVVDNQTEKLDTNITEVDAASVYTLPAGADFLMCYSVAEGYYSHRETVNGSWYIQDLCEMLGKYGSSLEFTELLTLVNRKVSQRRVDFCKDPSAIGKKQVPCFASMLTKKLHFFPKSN

Vero = Vero cell cytotoxicity, cytotoxicity control for flavivirus capping enzyme inhibitors (AID 588742); format: functional; settings: Chlorocebus sabaeus
[6] = biological target: Intestinal-type alkaline phosphatase (Mus musculus, UniProt P24822); experiment: PubChem AID 488874; format: functional
Intestinal-type alkaline phosphatase (Mus musculus, UniProt P24822), sequence (P24822 whole entry): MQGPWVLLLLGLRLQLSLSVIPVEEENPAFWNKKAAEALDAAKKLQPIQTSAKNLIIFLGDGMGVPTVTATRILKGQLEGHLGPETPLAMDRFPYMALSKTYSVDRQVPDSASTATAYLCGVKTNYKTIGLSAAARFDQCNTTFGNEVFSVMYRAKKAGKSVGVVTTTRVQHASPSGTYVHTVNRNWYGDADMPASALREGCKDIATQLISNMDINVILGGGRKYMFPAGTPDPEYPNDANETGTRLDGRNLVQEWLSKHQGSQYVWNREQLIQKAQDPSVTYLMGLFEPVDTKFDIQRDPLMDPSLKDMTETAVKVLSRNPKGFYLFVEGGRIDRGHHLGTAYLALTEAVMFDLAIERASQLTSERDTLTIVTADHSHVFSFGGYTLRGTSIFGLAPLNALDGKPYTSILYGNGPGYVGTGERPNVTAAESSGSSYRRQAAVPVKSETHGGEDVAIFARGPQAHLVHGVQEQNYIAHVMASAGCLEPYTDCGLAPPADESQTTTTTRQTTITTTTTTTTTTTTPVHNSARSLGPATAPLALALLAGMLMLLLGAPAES

Albumin = Albumin (Bos taurus, UniProt P02769); experiment: Counterscreen for inhibitors of T-cell receptor (TCR)-CD3 interaction: Fluorescence-based biochemical high throughput dose response assay to identify inhibitors of T-cell receptor (TCR)-CD3 interaction using a TAMRA-labeled BSA probe.; format: functional
Albumin, sequence (P02769 whole entry): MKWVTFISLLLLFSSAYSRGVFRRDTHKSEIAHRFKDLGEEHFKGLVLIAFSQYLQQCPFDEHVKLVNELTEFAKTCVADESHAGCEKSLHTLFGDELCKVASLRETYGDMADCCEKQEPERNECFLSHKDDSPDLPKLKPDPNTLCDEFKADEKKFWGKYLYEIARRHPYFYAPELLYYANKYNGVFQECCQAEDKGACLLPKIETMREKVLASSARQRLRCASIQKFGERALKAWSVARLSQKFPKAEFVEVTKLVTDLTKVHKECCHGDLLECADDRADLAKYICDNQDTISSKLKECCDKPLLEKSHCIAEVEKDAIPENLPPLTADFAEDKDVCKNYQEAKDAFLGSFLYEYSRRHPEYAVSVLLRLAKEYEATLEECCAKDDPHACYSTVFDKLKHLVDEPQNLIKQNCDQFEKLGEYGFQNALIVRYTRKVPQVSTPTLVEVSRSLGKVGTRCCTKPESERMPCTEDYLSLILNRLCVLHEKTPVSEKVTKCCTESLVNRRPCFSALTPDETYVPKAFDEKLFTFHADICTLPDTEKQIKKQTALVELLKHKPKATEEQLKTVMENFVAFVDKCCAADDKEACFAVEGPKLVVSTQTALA

[7] = biological target: T4, Histone-lysine N-methyltransferase NSD2 (Homo sapiens, UniProt O96028); format: biochemical
T4 sequence (O96028 whole entry): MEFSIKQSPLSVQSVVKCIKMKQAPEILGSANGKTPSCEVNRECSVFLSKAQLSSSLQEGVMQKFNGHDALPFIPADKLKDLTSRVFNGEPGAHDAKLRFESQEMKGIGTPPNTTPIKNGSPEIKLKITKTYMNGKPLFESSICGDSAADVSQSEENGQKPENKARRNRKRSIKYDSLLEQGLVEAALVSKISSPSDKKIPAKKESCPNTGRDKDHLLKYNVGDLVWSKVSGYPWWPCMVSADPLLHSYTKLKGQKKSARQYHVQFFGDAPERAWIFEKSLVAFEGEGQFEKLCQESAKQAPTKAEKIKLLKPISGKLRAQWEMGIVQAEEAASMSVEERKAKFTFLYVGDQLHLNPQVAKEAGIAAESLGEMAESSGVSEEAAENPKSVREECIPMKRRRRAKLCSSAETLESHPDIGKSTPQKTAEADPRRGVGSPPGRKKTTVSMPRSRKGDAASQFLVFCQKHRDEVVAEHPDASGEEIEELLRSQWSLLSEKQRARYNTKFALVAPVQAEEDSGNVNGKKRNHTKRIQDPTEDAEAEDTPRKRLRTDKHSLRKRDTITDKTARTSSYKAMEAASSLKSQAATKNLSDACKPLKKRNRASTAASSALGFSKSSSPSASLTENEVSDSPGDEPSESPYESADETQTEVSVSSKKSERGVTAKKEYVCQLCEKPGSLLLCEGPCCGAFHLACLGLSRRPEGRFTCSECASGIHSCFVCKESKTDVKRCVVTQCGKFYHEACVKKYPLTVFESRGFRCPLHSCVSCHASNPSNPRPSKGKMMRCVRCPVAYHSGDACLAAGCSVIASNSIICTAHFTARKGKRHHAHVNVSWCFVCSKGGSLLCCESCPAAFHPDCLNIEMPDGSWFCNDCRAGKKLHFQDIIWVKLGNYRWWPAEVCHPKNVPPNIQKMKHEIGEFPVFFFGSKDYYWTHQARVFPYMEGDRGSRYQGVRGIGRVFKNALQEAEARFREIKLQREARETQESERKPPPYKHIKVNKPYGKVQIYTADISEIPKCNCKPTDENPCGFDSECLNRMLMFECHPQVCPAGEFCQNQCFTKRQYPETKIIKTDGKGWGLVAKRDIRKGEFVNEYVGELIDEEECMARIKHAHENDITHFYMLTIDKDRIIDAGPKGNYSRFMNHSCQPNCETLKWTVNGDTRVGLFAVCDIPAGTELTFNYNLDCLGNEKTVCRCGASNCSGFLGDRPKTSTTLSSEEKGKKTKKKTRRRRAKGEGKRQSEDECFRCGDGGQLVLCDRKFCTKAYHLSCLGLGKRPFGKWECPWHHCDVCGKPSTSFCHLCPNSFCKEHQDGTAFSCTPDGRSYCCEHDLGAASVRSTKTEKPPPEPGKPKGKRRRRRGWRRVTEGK

[8] = biological target: T1, Intestinal-type alkaline phosphatase; experiment: human IAP inhibitors, dose response, biochemical, luminescent, uHTS hits, set 2 (AID 488793); format: functional
[9] = biological target: FAD-linked sulfhydryl oxidase ALR (Homo sapiens, UniProt P55789); experiment: inhibitors of human ALR sulfhydryl oxidase, dose response, biochemical, H2O2 detection, luminescence, cherry-pick (AID 493248)
FAD-linked sulfhydryl oxidase ALR, sequence (P55789 whole entry): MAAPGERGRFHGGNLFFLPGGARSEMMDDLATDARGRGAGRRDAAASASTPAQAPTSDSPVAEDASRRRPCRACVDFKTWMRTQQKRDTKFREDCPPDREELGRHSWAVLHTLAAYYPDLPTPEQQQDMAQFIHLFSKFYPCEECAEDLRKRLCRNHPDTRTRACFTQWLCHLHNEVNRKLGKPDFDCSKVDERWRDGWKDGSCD

Structure (SMILES): CNC(=O)CCc1nc(-c2ccc(OC)cc2)no1
- IC50 (HEK293 [1]): > 80 µM (inactive)
- IC50 (HEK293 [2]): > 80 µM (inactive)
- IC50 (Jurkat): > 80 µM (inactive)

Structure (SMILES): O=C1Nc2ccccc2/C1=N/N=C/c1ccc(O)c(O)c1
- IC50 (Large T antigen): 3.29 µM (active)
- IC50 [3]: 7.95 µM (active)
- IC50 [4]: 3.29 µM (active)
- CC50 [5]: 22.4 µM (active)
- AC50 (Caspase-6): 0.226 µM (active)
- CC50 (Vero): > 40 µM (active)
- IC50 [6]: 4.79 µM (active)
- IC50 (Albumin): > 94.1 µM (inactive)
- AC50 [7]: 0.407 µM (active)
- IC50 [8]: 7.63 µM (active)
- AC50 [9]: 0.83 µM (active)

Reference: ChEMBL document CHEMBL1201862, “PubChem BioAssay data set” (2004)
